# Article PMC12150326 (The Journal of Organic Chemistry, 2025)
# Assays:
# Type in all cases: cell-based, human
# [1] = tested on: A498
# Procedure: (§1) (aR)-6, (aS)-6, (aS)-iso -6, and (aR)-iso -6 were submitted to the 60 Cell Screen panel and evaluated at 5 doses (100 μM, 10 μM, 1 μM, 0.1 μM, and 0.01 μM). […] The complete report from this submission is available at the publisher’s Web site as a separate Supporting Information file. For COMPARE analysis, TGI levels of response for (aR)-DM-MTC (6) and (aS)-iso-DM-MTC were compared to those of several established tubulin inhibitors previously tested in the NCI-60 screen.
# [2] = tested on: BT-549
# Procedure: as §1
# [3] = tested on: EKVX
# Procedure: as §1
# [4] = tested on: HCC-2998
# Procedure: as §1
# [5] = tested on: HL-60(TB)
# Procedure: as §1
# [6] = tested on: HT29
# Procedure: as §1
# [7] = tested on: IGROV1
# Procedure: as §1
# [8] = tested on: K-562
# Procedure: as §1
# [9] = tested on: MDA-MB-231/ATCC
# Procedure: as §1
# [10] = tested on: MDA-MB-435
# Procedure: as §1
# [11] = tested on: MDA-MB-468
# Procedure: as §1
# [12] = tested on: NCI 60 cell lines
# Procedure: as §1
# [13] = tested on: NCI-H226
# Procedure: as §1
# [14] = tested on: OVCAR-4
# Procedure: as §1
# [15] = tested on: OVCAR-8
# Procedure: as §1
# [16] = tested on: PC-3
# Procedure: as §1
# [17] = tested on: RPMI-8226
# Procedure: as §1
# [18] = tested on: RXF 393
# Procedure: as §1
# [19] = tested on: SF-539
# Procedure: as §1
# [20] = tested on: SK-MEL-5
# Procedure: as §1
# [21] = tested on: SNB-75
# Procedure: as §1
# [22] = tested on: SR
# Procedure: as §1
# [23] = tested on: SW-620
# Procedure: as §1
# [24] = tested on: T-47D
# Procedure: as §1
# [25] = tested on: UACC-62
# Procedure: as §1
# [26] = tested on: UO-31
# Procedure: as §1
compound,measurement,setting,value
"COc1cc(C)c(-c2ccc(OC)c(=O)cc2C)c(OC)c1OC (single isomer, unassigned) [(aS)-6]",Log10GI50,[1],> -4.00 Molar
same,Log10LC50,[1],> -4.00 Molar
same,Log10TGI,[1],> -4.00 Molar
same,Log10GI50,[2],> -4.00 Molar
same,Log10LC50,[2],> -4.00 Molar
same,Log10TGI,[2],> -4.00 Molar
same,Log10GI50,[3],> -4.00 Molar
same,Log10LC50,[3],> -4.00 Molar
same,Log10TGI,[3],> -4.00 Molar
same,Log10GI50,[4],> -4.00 Molar
same,Log10LC50,[4],> -4.00 Molar
same,Log10TGI,[4],> -4.00 Molar
same,Log10GI50,[5],> -4.00 Molar
same,Log10LC50,[5],> -4.00 Molar
same,Log10TGI,[5],> -4.00 Molar
same,Log10GI50,[6],> -4.00 Molar
same,Log10LC50,[6],> -4.00 Molar
same,Log10TGI,[6],> -4.00 Molar
same,Log10GI50,[7],> -4.00 Molar
same,Log10LC50,[7],> -4.00 Molar
same,Log10TGI,[7],> -4.00 Molar
same,Log10GI50,[8],-4.38 Molar
same,Log10LC50,[8],> -4.00 Molar
same,Log10TGI,[8],> -4.00 Molar
same,Log10GI50,[9],> -4.00 Molar
same,Log10LC50,[9],> -4.00 Molar
same,Log10TGI,[9],> -4.00 Molar
same,Log10GI50,[10],-4.14 Molar
same,Log10LC50,[10],> -4.00 Molar
same,Log10TGI,[10],> -4.00 Molar
same,Log10GI50,[11],-4.20 Molar
same,Log10LC50,[11],> -4.00 Molar
same,Log10TGI,[11],> -4.00 Molar
same,cytotoxicity at the highest concentration tested,[12]; 100 μM,not cytotoxic
same,Log10 Range at TGI,"[12]; NCI-60 cell line selectivity, listed as (aS)-DM-MTC (6)",0
same,Mean TGI,"[12]; NCI-60 mean total growth inhibition, listed as (aS)-DM-MTC (6)",> 100 µM
same,GI50,"[12]; NCI-60 mean, listed as (aS)-DM-MTC (6)",> 100 µM
same,Delta Log10GI50,[12]; mean graph,0.63
same,Delta Log10LC50,[12]; mean graph,0
same,Delta Log10TGI,[12]; mean graph,0
same,Range Log10GI50,[12]; mean graph,0.65
same,Range Log10LC50,[12]; mean graph,0.0
same,Range Log10TGI,[12]; mean graph,0.0
same,_MID Log10GI50,[12]; mean graph midpoint,-4.02 Molar
same,_MID Log10LC50,[12]; mean graph midpoint,-4.0 Molar
same,_MID Log10TGI,[12]; mean graph midpoint,-4.0 Molar
same,Log10GI50,[13],> -4.00 Molar
same,Log10LC50,[13],> -4.00 Molar
same,Log10TGI,[13],> -4.00 Molar
same,Log10GI50,[14],> -4.00 Molar
same,Log10LC50,[14],> -4.00 Molar
same,Log10TGI,[14],> -4.00 Molar
same,Log10GI50,[15],> -4.00 Molar
same,Log10LC50,[15],> -4.00 Molar
same,Log10TGI,[15],> -4.00 Molar
same,Log10GI50,[16],> -4.00 Molar
same,Log10LC50,[16],> -4.00 Molar
same,Log10TGI,[16],> -4.00 Molar
same,Log10GI50,[17],> -4.00 Molar
same,Log10LC50,[17],> -4.00 Molar
same,Log10TGI,[17],> -4.00 Molar
same,Log10GI50,[18],> -4.00 Molar
same,Log10LC50,[18],> -4.00 Molar
same,Log10TGI,[18],> -4.00 Molar
same,Log10GI50,[19],> -4.00 Molar
same,Log10LC50,[19],> -4.00 Molar
same,Log10TGI,[19],> -4.00 Molar
same,Log10GI50,[20],> -4.00 Molar
same,Log10LC50,[20],> -4.00 Molar
same,Log10TGI,[20],> -4.00 Molar
same,Log10GI50,[21],> -4.00 Molar
same,Log10LC50,[21],> -4.00 Molar
same,Log10TGI,[21],> -4.00 Molar
same,Log10GI50,[22],> -4.00 Molar
same,Log10LC50,[22],> -4.00 Molar
same,Log10TGI,[22],> -4.00 Molar
same,Log10GI50,[23],> -4.00 Molar
same,Log10LC50,[23],> -4.00 Molar
same,Log10TGI,[23],> -4.00 Molar
same,Log10GI50,[24],> -4.00 Molar
same,Log10LC50,[24],> -4.00 Molar
same,Log10TGI,[24],> -4.00 Molar
same,Log10GI50,[25],> -4.00 Molar
same,Log10LC50,[25],> -4.00 Molar
same,Log10TGI,[25],> -4.00 Molar
same,Log10GI50,[26],> -4.00 Molar
same,Log10LC50,[26],> -4.00 Molar
same,Log10TGI,[26],> -4.00 Molar
